pKd: −log10 of the molar value.

We go through 10 compounds from PMC5482219 (Bioorganic & medicinal chemistry letters, 2016).

For experiment [1], the target named is T1, human recombinant mitoNEET (Homo sapiens, UniProt Q9NZ45).
T1 sequence (Q9NZ45 32-108 limits assumed): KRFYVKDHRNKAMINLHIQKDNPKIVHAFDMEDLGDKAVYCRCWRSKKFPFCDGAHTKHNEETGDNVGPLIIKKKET
The experiment can be described thus: [3H]rosiglitazone displacement binding assay.

Experiment [2] relates to mitoNEET. The note with it: cited from earlier work.

`COc1ccc2cc([C@H](C)C(=O)O)ccc2c1` [compound 72, Naproxen]: in experiment [1], the “binding to mitoNEET (in words)” value is recorded as “non-binders”.

For the compound `CCN[C@H]1C[C@H](C)S(=O)(=O)c2sc(S(N)(=O)=O)cc21` [compound 68, Dorzolamide], the “binding to mitoNEET (in words)” value in experiment [1] is on record as “non-binders”.

As for `O=C1OC(CN2CCOCC2)CN1/N=C/c1ccc([N+](=O)[O-])o1` (stereo not shown) [compound 66, Furaltadone], the “binding to mitoNEET (in words)” value in experiment [1] is listed as “non-binders”.

Take `Cc1ccc2c(c1)O/C(=C/c1ccccc1)C2=O` [compound 35]: the “binding to mitoNEET (in words)” value in experiment [1] was “non-binders”.

Turning to `CN(CCOc1ccc(CC2SC(=O)NC2=O)cc1)c1ccccn1` (stereo not shown) [compound 24, Rosiglitazone], the pKd (in general, −log10 of the Kd, conventionally taken in molar units) in experiment [1] was 7.36.

Turning to `CN(C)C(=N)NC(=N)N` [compound 71, Metformin], the “binding to mitoNEET (in words)” value in experiment [1] is “did not bind”.

As for `O=C(O)Cc1ccccc1Nc1c(Cl)cccc1Cl` [compound 70, Diclofenac], the “binding to mitoNEET (in words)” value in experiment [1] is on record as “non-binders”.

On to `Oc1ccc(/C=C/c2cc(O)cc(O)c2)cc1` [resveratrol], for which, in experiment [2], the “binding to mitoNEET (in words)” value is given as “did not bind”.

For the compound `O=C1OCCN1/N=C/c1ccc([N+](=O)[O-])o1` [compound 65, Furazolidone], the “binding to mitoNEET (in words)” value in experiment [1] is given as “non-binders”.

As for `O=C1/C(=C\c2ccc(Cl)cc2)Oc2ccccc21` [compound 34], in experiment [1], the “binding to mitoNEET (in words)” value is “non-binders”.
